# In PubChem BioAssay AID602238 (National Center for Advancing Translational Sciences (NCATS), 2012):
# System: mouse liver microsomes, percent remaining, LC-MS/MS
# Assay: qHTS for Activators of Human alpha-Glucosidase as a Potential Chaperone Treatment of Pompe Disease: Metabolic Stability
# Conditions: at 5 µM; active compounds read high
# From the text: Alpha-glucosidase is responsible for hydrolysis of terminal, non-reducing 1,4-linked alpha-D-glucose residues with release of alpha-D-glucose. It is a lysosomal hydrolase that is required for the degradation of a small percentage (1-3%) of cellular glycogen in human. Deficiency of this enzyme results in glycogen-storage disease type II (GSDII), also referred to as Pompe disease, an autosomal recessive disorder. Structurally normal glycogen is accumulated in lysosomes and cytoplasm in affected patients, primarily in muscle tissues. Excessive glycogen storage within lysosomes may interrupt normal functioning of other organelles and leads to cellular injury. In turn, this leads to enlargement and dysfunction of the entire organ involved (eg, cardiomyopathy and muscle weakness). It has reported that the improper folding and trafficking of alpha-glucosidase resulting from the genetic mutations may account for a significant number of Pompe patients. […] We optimized this alpha-glucosidase assay in 1536-well plate format for identifying the novel small molecule inhibitors with the structures other than the sugar analogs in order to develop the new pharmacological chaperones. The probe and other compounds were characterized in this metabolic stability assay to asses their properties. NIH Chemical Genomics Center [NCGC] NIH Molecular Libraries Probe Production Centers Network [MLPCN] MLPCN Grant: MH084841 Assay Submitter (PI): Wei Zheng
# 5uM of compound is incubated with mouse liver microsome; the reference compounds are verapamil and warfarin. Compounds are incubated and samples are analyzed with LC-MS/MS.
row,percent remaining [%],SMILES
1,4,CCCN1CNc2c(c(=O)[nH]c(=S)n2CCc2ccc(OC)c(OC)c2)C1
2,105,CCCN1CNc2c(c(=O)[nH]c(=S)n2CCc2cccc(Cl)c2Cl)C1
3,101,CCCN1CNc2c(c(=O)[nH]c(=S)n2Cc2ccc(OC)c(OC)c2)C1
